As usually defined, the IC50 is the concentration that gives 50% inhibition.

Among the data in patent US11401278B2, “Macrocyclic indole derivatives” (The Broad Institute, Inc., priority 2017, dated 2022) are IC50 values, retold here.

Where a name gives a salt, the structure may show the parent alone. Read-outs that look alike come from different tables or passages of the source.

Data set [1] deals with MCL-1 (Homo sapiens (Human), UniProt Q07820, K194A/K197A/R201A). The experiment in a line: Protein-protein interaction assay MCL-1/Noxa BH3 peptide (MCL-1 assay, TR-FRET). It is filed as binding. Conditions: MBP-MCL-1 / Noxa BH3 peptide, median. An outline of the steps:
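TR-FRET competition assay read at 665/620 nm, with a Noxa BH3 tracer peptide (1 nM) plus Eu-cryptate anti-MBP and XL665-streptavidin. Compounds (0.1 nM-20 μM, duplicates) were pre-equilibrated 10 min at 22° C with 1 nM MBP-MCL-1 (173-329) in Tris pH 7, NaCl, KF, DTT buffer, then incubated 1 h at 22° C and overnight at 4° C. IC50 came from 4-parameter regression.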

Data set [2] has as its system SUDHL5. The experiment in a line: Induction of cytotoxicity (Assay 6), SUDHL5. The following applies: read-out: Cytotox SUDHL5 [M] (median) IC50, CellTiter-Glo, 5 hours, SUDHL5. (In ATP-based viability assays light output follows the ATP content of the culture.)
Description: Assay 6 Induction of Cytotoxicity Upon Treatment of Cells with Selected Compounds
Therefore, cytotoxicity assays were run in parallel in SUDHL5 and SUDHL10 cells.
The different cell lines were plated in culture medium (RPMI 1640 [GIBCO #22400-089] supplemented with 10% Fetal Bovine Serum) at a density of 3,300 cells in 30 μl/well in a sterile, solid black, flat bottom, polystyrene, TC-treated 384-well microplate (Corning #3571) using Multidrop Combi Reagent Dispenser. As a control, medium without cells was also added to the plate. Cells were incubated in a humidified incubator at 37° C. overnight. On the next day, the cells were treated with compounds (stock solution, 10 mM in DMSO) using the HP D300 Digital Dispenser in a concentration range of 3.3×10e-5 M (33 μM) to 5×10e-9 M (5 nM) in a single-dot curve with at least 16 dilutions and a DMSO concentration of 0.33%. Rim wells were excluded. The cells were incubated for 5 hours in a humidified incubator at 37° C. After this incubation, 30 μl of CellTiter-Glo® Luminescent Cell Viability reagent (Promega, G7573) was added to each well using the Multidrop Combi Reagent Dispenser, followed by 15 minutes incubation on a shaker at room temperature. Finally, luminescence was read at 0.1 ms, with a gain of 3000 using the PHERAstar FS microplate reader (BMG Labtech).

Sequence of MCL-1 (Q07820 whole entry K194A/K197A/R201A, looked up): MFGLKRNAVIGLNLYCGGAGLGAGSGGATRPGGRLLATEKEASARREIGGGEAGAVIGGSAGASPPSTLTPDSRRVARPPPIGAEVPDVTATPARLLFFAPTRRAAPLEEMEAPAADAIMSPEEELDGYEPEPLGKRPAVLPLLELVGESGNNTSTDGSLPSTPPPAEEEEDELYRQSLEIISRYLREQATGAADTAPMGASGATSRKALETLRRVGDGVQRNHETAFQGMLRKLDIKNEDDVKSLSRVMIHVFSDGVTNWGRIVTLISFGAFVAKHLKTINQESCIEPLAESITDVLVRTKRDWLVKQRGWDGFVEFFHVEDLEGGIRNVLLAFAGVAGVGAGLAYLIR

Turning to `Cc1c2c(nn1C)C(CCN1CCOCC1)N(C)S(=O)(=O)CCCn1c(C(=O)O)c(CCCOc3cccc4ccccc34)c3cccc-2c31` (racemic) [Example 44, (rac)-2,3,14-trimethyl-15-[2-(rac)-(morpholin-4-yl)ethyl]-7-[3-(1-naphthyloxy)propyl]-11,12,14,15-tetrahydro-2H,10H-pyrazolo[3′,4′:4,5][1,2,8]thiadiazacycloundecino[6,7,8-hi]indole-8-carboxylic acid 13,13-dioxide (Mixture of Stereoisomers)], the IC50 in data set [1] was determined as 3 nM; in data set [2] (Homo sapiens, SU-DHL-5, 5 h) it was 1.3e-06 M.

`CCc1c2c(nn1C)C(C)N(C)S(=O)(=O)CCCn1c(C(=O)O)c(CCCOc3cccc4ccccc34)c3cccc-2c31` (racemic) [Example 18, 12-Ethyl-8,9,11-trimethyl-1-(3-(naphthalen-1-yloxy)propyl)-5,6,9,11-tetrahydro-4H,8H-pyrazolo[3′,4′:4,5][1]thia[2,8]diazacycloundecino[6,7,8-hi]indole-2-carboxylic acid 7,7-dioxide (Mixture of Stereoisomers)]: the IC50 was 7.8 nM in data set [1] and 3.5e-06 M in data set [2] (Homo sapiens, SU-DHL-5, 5 h).

Regarding `Cc1c2c(nn1C)CN(C)S(=O)(=O)CCCn1c(C(=O)O)c(CCCOc3cccc4ccccc34)c3ccc(Cl)c-2c31` (single isomer, unassigned; enantiomer 1) [Example 5, 4-Chloro-2,3,14-trimethyl-7-{3-[(naphthalen-1-yl)oxy]propyl}-13,13-dioxo-10,11,12,13,14,15-hexahydro-2H-13λ^6-pyrazolo[3′,4′:4,5][1,2,8]thiadiazacycloundecino[6,7,8-hi]indole-8-carboxylic acid-N-ethylethanamine salt (Enantiomer 1)], the IC50 in data set [1] was 0.52 nM; in data set [2], 4.9e-07 M.

On to `Cc1c2c(nn1C)C(CCN1CCOCC1)N(C)S(=O)(=O)CCCn1c(C(=O)O)c(CCCOc3cccc4cc(F)ccc34)c3ccc(Cl)c-2c31` (single isomer, unassigned; enantiomer 2) [Example 67, 4-chloro-7-{3-[(6-fluoronaphthalen-1-yl)oxy]propyl}-2,3,14-trimethyl-15-[2-(morpholin-4-yl)ethyl]-13,13-dioxo-10,11,12,13,14,15-hexahydro-2H-13lambda^6-pyrazolo[3′,4′:4,5][1,2,8]thiadiazacycloundecino[6,7,8-hi]indole-8-carboxylic acid (Enantiomer 2)], for which the values for the IC50 in data set [1] and in data set [2] were 0.4 nM and 9.8e-09 M, respectively.

With `CCc1c2c(nn1C)CN(CCCN1CCCC1=O)S(=O)(=O)CCCn1c(C(=O)O)c(CCCOc3cccc4ccccc34)c3cccc-2c31` (racemic) [Example 13, (rac)-12-Ethyl-11-methyl-1-(3-(naphthalen-1-yloxy)propyl)-8-(3-(2-oxopyrrolidin-1-yl)propyl)-5,6,9,11-tetrahydro-4H,8H-pyrazolo[3′,4′:4,5][1]thia[2,8]diazacycloundecino[6,7,8-hi]indole-2-carboxylic acid 7,7-dioxide], the IC50 in data set [1] turned out to be 6.3 nM; in data set [2] (Homo sapiens, SU-DHL-5, 5 h), 8.2e-06 M.

With `CCc1c2c(nn1C)CN(C)S(=O)(=O)CCCn1c(C(=O)O)c(CCCOc3cccc4c3CCC4)c3ccc(F)c-2c31` (racemic) [Example 32, (rac)-1-(3-((2,3-Dihydro-1H-inden-4-yl)oxy)propyl)-12-ethyl-13-fluoro-8,11-dimethyl-5,6,9,11-tetrahydro-4H,8H-pyrazolo[3′,4′:4,5][1]thia[2,8]diazacycloundecino[6,7,8-hi]indole-2-carboxylic acid 7,7-dioxide], the IC50 in data set [1] worked out at 1.5 nM; in data set [2] (Homo sapiens, SU-DHL-5, 5 h), 7.4e-07 M.

For the compound `CCc1c2c(nn1C)CN(CCN1CCOCC1)S(=O)(=O)CCCn1c(C(=O)O)c(CCCOc3cccc4cc(F)ccc34)c3ccc(Cl)c-2c31` [Example 77, (rac)-13-chloro-12-ethyl-1-(3-((6-fluoronaphthalen-1-yl)oxy)propyl)-11-methyl-8-(2-morpholinoethyl)-5,6,9,11-tetrahydro-4H,8H-pyrazolo[3′,4′:4,5][1]thia[2,8]diazacycloundecino[6,7,8-hi]indole-2-carboxylic acid 7,7-dioxide], the IC50 in data set [1] came out at 6.2 nM; in data set [2] (Homo sapiens, SU-DHL-5, 5 h) it was 6.7e-06 M.

Turning to `CCc1c2c(nn1C)CN(C)S(=O)(=O)CCCn1c(C(=O)O)c(CCCOc3cccc4ccccc34)c3ccc(Cl)c-2c31` [Example 20, (rac)-13-Chloro-12-ethyl-8,11-dimethyl-1-(3-(naphthalen-1-yloxy)propyl)-5,6,9,11-tetrahydro-4H,8H-pyrazolo[3′,4′:4,5][1]thia[2,8]diazacycloundecino[6,7,8-hi]indole-2-carboxylic acid 7,7-dioxide], the IC50 stood at 2.7 nM in data set [1] and 9.1e-07 M in data set [2] (Homo sapiens, SU-DHL-5, 5 h).

For `CCc1c2c(nn1C)C(CCC1CCOCC1)N(C)S(=O)(=O)CCCn1c(C(=O)O)c(CCCOc3cccc4cc(F)ccc34)c3ccc(Cl)c-2c31` (single isomer, unassigned; enantiomer 1) [Example 61, (+)-4-chloro-3-ethyl-7-{3-[(6-fluoronaphthalen-1-yl)oxy]propyl}-2,14-dimethyl-15-[2-(oxan-4-yl)ethyl]-13,13-dioxo-10,11,12,13,14,15-hexahydro-2H-13lambda^6-pyrazolo[3′,4′:4,5][1,2,8]thiadiazacycloundecino[6,7,8-hi]indole-8-carboxylic acid (Enantiomer 1)], the IC50 in data set [1] came to 0.94 nM; in data set [2], 2.8e-08 M.
